Results on one molecule are retold here after ChEMBL document CHEMBL1149804, “Bioactivity of novel transition metal complexes of N'-[(4-methoxy)thiobenzoyl]benzoic acid hydrazide” (Eur J Med Chem, 2008).

The test system of one assay is HT-29. The assay is described as follows: Antiproliferative activity against human HT29 cells after 48 hrs by MTT assay. The format is functional, cell-based. The settings on record: HT-29, 48 h. Background: Tetrazolium dyes change colour on reduction, which living cells bring about.
Assay [1] in a line: Inhibition of human recombinant N-myristoyltransferase.

By IC50 is commonly meant the point on the concentration scale where inhibition reaches its midpoint. `COc1ccc(C(=S)NNC(=O)c2ccccc2)cc1`: the half-inhibitory concentration (IC50) with HT-29 is 90.9 µM; in assay [1], 3200 µM.
